Columns and labels:
human TLR7 = molecular target: T1, human TLR7 (Homo sapiens, UniProt Q9NYK1); assay: Human TLR7 agonist activity reporter assay (HEK-Blue TLR7 cells, SEAP reporter); format: cell-based; settings: human TLR7 (hTLR7) reporter assay, SEAP readout after 18 h, average where assay repeated, read-out: TLR7 Agonism EC50
T1 construct: host or cells: HEK-Blue TLR7 cells (engineered human embryonic kidney cells)
T1 sequence (Q9NYK1 27-1049): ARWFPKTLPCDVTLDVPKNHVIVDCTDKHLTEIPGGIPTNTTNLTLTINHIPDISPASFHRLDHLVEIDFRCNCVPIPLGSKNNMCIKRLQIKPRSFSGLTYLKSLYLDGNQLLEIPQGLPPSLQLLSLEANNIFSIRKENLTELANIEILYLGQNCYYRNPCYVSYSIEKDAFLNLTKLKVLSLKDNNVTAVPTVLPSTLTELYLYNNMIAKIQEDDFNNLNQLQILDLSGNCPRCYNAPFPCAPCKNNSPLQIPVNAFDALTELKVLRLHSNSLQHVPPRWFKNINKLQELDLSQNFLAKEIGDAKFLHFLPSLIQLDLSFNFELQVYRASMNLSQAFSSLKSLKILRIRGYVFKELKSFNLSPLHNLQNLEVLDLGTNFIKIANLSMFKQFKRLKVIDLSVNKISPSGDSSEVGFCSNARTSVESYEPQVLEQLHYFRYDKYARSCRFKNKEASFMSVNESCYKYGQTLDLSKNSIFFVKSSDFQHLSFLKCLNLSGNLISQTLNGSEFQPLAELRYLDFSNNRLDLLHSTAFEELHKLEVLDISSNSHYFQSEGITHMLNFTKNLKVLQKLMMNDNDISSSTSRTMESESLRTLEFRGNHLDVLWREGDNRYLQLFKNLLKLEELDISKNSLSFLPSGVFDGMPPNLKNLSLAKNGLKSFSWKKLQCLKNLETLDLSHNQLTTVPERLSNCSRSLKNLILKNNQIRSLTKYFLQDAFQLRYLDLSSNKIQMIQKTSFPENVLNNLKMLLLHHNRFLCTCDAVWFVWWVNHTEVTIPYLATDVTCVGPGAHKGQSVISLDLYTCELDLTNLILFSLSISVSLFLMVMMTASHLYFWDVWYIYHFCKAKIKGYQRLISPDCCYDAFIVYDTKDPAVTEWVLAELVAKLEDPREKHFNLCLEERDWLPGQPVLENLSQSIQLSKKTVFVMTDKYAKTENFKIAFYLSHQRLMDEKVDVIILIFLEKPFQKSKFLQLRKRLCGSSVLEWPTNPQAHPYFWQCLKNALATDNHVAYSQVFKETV
Procedure: Human TLR7 Agonist Activity Assay
This procedure describes a method for assaying human TLR7 (hTLR7) agonist activity of the compounds disclosed in this specification.
HEK-Blue™ TLR7 cells were added to each well of a 384-well tissue-culture plate (15,000 cells per well) and incubated 16-18 h at 37° C., 5% CO2. Compounds (100 nl) were dispensed into wells containing the HEK-Blue™ TLR cells and the treated cells were incubated at 37° C., 5% CO2. After 18 h treatment ten microliters of freshly-prepared Quanti-Blue™ reagent (Invivogen) was added to each well, incubated for 30 min (37° C., 5% CO2) and SEAP levels measured using an Envision plate reader (OD=620 nm).

CD69 = assay: Induction of CD69 in human whole blood; format: cell-based; settings: 17 hrs incubation, CD69 surface staining, 100% set to 1 uM of resiquimod, average where assay repeated, read-out: hWB CD69 EC50
Procedure: Induction of Type I Interferon Genes (MX-1) and CD69 in Human Blood
The induction of Type I interferon (IFN) MX-1 genes and the B-cell activation marker CD69 are downstream events that occur upon activation of the TLR7 pathway. The following is a human whole blood assay that measures their induction in response to a TLR7 agonist.
Heparinized human whole blood was harvested from human subjects and treated with test TLR7 agonist compounds at 1 mM. The blood was diluted with RPMI 1640 media and Echo was used to predot 10 nL per well giving a final concentration of 1 uM (10 nL in 10 uL of blood). After mixing on a shaker for 30 sec, the plates were covered and placed in a 37° C. chamber for o/n=17 hrs. Fixing/lysis buffer was prepared (5×→1× in H2O, warm at 37° C.; Cat #BD 558049) and kept the perm buffer (on ice) for later use.
For surface markers staining (CD69): prepared surface Abs: 0.045 ul hCD14-FITC (ThermoFisher Cat #MHCD1401)+0.6 ul hCD19-ef450 (ThermoFisher Cat #48-0198-42)+1.5 ul hCD69-PE (cat #BD555531)+0.855 ul FACS buffer. Added 3 ul/well, spin 1000 rpm for 1 min and mixed on shaker for 30 sec, put on ice for 30 min. Stop stimulation after 30 minutes with 70 uL of prewarmed 1× fix/lysis buffer and use Feliex mate to resuspend (15 times, change tips for each plate) and incubate at 37 C for 10 minutes.
Centrifuge at 2000 rpm for 5 minutes aspirate with HCS plate washer, mix on shaker for 30 sec and then wash with 70 uL in dPBS and pelleted 2×s (2000 rpm for 5 min) and 50 ul wash in FACS buffer pelleted 1×s (2000 rpm for 5 min). Mix on shaker for 30 sec. For Intracellular markers staining (MX-1): Add 50 ul of BD Perm buffer III and mix on shaker for 30 sec. Incubate on ice for 30 minutes (in the dark). Wash with 50 uL of FACS buffer 2× (spin @2300 rpm×5 min after perm) followed by mixing on shaker for 30 sec. Resuspended in 20 ul of FACS buffer containing MX1 antibody ( )(4812)-Alexa 647: Novus Biologicals #NBP2-43704AF647) 20 ul FACS bf+0.8 ul hIgG+0.04 ul MX-1. Spin 1000 rpm for 1 min, mix on shaker for 30 se and the samples were incubated at RT in the dark for 45 minutes followed by washing 2×FACS buffer (spin @2300 rpm×5 min after perm). Resuspend 20 ul (35 uL total per well) of FACS buffer and cover with foil and place in 4° C. to read the following day. Plates were read on iQuePlus. The results were loaded into toolset and […] curves are generated in curve master. The y-axis 100% is set to 1 uM of resiquimod.

| EC50 (human TLR7) | EC50 (CD69) | Compound |
| --- | --- | --- |
| 280 nM | 291 nM | CN1CCC(NC(=O)c2ccc(Cn3ncc4nc(N)nc(NCC5CC6(CC6)C5)c43)c3ncccc23)CC1 [Compound 116, 8-({5-amino-7-[({spiro[2.3]hexan-5-yl}methyl)amino]-1H-pyrazolo[4,3-d]pyrimidin-1-yl}methyl)-N-(1-methylpiperidin-4-yl)quinoline-5-carboxamide] |
| 447 nM | 266 nM | Nc1nc(NCC2CC3(CC3)C2)c2c(cnn2Cc2ccc(C(=O)N3CCNC(=O)C3)c3cccnc23)n1 [Compound 117, 4-[8-({5-amino-7-[({spiro[2.3]hexan-5-yl}methyl)amino]-1H-pyrazolo[4,3-d]pyrimidin-1-yl}methyl)quinoline-5-carbonyl]piperazin-2-one] |
| 882 nM | 1000 nM | CCC[C@@H](CCO)Nc1nc(N)nc2c(C)nn(Cc3ccc(C(=O)N4CCN(CCO)CC4)c4cccnc34)c12 [Compound 120, (3S)-3-{[5-amino-1-({5-[4-(2-hydroxyethyl)piperazine-1-carbonyl]quinolin-8-yl}methyl)-3-methyl-1H-pyrazolo[4,3-d]pyrimidin-7-yl]amino}hexan-1-ol] |
| 267 nM | 153 nM | CCC[C@@H](CCO)Nc1nc(N)nc2cnn(Cc3ccc(C(=O)NC4CCN(C)CC4)c4cccnc34)c12 [Compound 121, 8-[(5-amino-7-{[(3S)-1-hydroxyhexan-3-yl]amino}-1H-pyrazolo[4,3-d]pyrimidin-1-yl)methyl]-N-(1-methylpiperidin-4-yl)quinoline-5-carboxamide] |
| 732 nM | 661 nM | CCC[C@@H](CCO)Nc1nc(N)nc2c(C)nn(Cc3ccc(C(=O)NC4CCN(C)CC4)c4cccnc34)c12 [Compound 123, 8-[(5-amino-7-{[(3S)-1-hydroxyhexan-3-yl]amino}-3-methyl-1H-pyrazolo[4,3-d]pyrimidin-1-yl)methyl]-N-(1-methylpiperidin-4-yl)quinoline-5-carboxamide] |
| 33.7 nM | 83.3 nM | CCC[C@@H](CCO)Nc1nc(N)nc2cnn(Cc3ccc(C(=O)N4C[C@H]5CN(C)C[C@H]5C4)c4cccnc34)c12 [Compound 125, (3S)-3-{[1-([5-[(3aR,6aS)-5-methyl-octahydropyrrolo[3,4-c]pyrrole-2-carbonyl]quinolin-8-yl}methyl)-5-amino-1H-pyrazolo[4,3-d]pyrimidin-7-yl]amino}hexan-1-ol] |

The remaining lines, values behind:

| Compound | EC50 (human TLR7) | EC50 (CD69) |
| --- | --- | --- |
| CCC[C@@H](CCO)Nc1nc(N)nc2cnn(Cc3ccc(C(=O)N4CCN(C)CC4)c4cccnc34)c12 [Compound 112, (3S)-3-[(5-amino-1-{[5-(4-methylpiperazine-1-carbonyl)quinolin-8-yl]methyl}-1H-pyrazolo[4,3-d]pyrimidin-7-yl)amino]hexan-1-ol] | 4.9 nM | 5.1 nM |
| CCC[C@@H](CCO)Nc1nc(N)nc2cnn(Cc3ccc(C(=O)N4CCOCC4)c4cccnc34)c12 [Compound 113, (3S)-3-[(5-amino-1-{[5-(morpholine-4-carbonyl)quinolin-8-yl]methyl}-1H-pyrazolo[4,3-d]pyrimidin-7-yl)amino]hexan-1-ol] | 186 nM | 132 nM |
| CCC[C@@H](CCO)Nc1nc(N)nc2cnn(Cc3ccc(C(=O)NC4CCOCC4)c4cccnc34)c12 [Compound 114, 8-[(5-amino-7-{[(3S)-1-hydroxyhexan-3-yl]amino}-1H-pyrazolo[4,3-d]pyrimidin-1-yl)methyl]-N-(oxan-4-yl)quinoline-5-carboxamide] | 75.2 nM | 369 nM |
| Nc1nc(NCC2CC3(CC3)C2)c2c(cnn2Cc2ccc(C(=O)N3CCN(CCO)CC3)c3cccnc23)n1 [Compound 115, 2-{4-[8-({5-amino-7-[({spiro[2.3]hexan-5-yl}methyl)amino]-1H-pyrazolo[4,3-d]pyrimidin-1-yl}methyl)quinoline-5-carbonyl]piperazin-1-yl}ethan-1-ol] | 468 nM | 756 nM |
| CCC[C@@H](CCO)Nc1nc(N)nc2cnn(Cc3ccc(C(=O)N4CCNC(=O)C4)c4cccnc34)c12 [Compound 118, 4-{8-[(5-amino-7-{[(3S)-1-hydroxyhexan-3-yl]amino}-1H-pyrazolo[4,3-d]pyrimidin-1-yl)methyl]quinoline-5-carbonyl}piperazin-2-one] | 311 nM | 208 nM |
| CCC[C@@H](CCO)Nc1nc(N)nc2c(C)nn(Cc3ccc(C(=O)NC4CCOCC4)c4cccnc34)c12 [Compound 119, 8-[(5-amino-7-{[(3S)-1-hydroxyhexan-3-yl]amino}-3-methyl-1H-pyrazolo[4,3-d]pyrimidin-1-yl)methyl]-N-(oxan-4-yl)quinoline-5-carboxamide] | 606 nM | 1000 nM |
| Cc1cc(CNc2nc(N)nc3cnn(Cc4ccc(C(=O)NC5CCN(C)CC5)c5cccnc45)c23)no1 [Compound 122, 8-[(5-amino-7-{[(5-methyl-1,2-oxazol-3-yl)methyl]amino}-1H-pyrazolo[4,3-d]pyrimidin-1-yl)methyl]-N-(1-methylpiperidin-4-yl)quinoline-5-carboxamide] | 309 nM | 54 nM |
| CCC[C@@H](CCO)Nc1nc(N)nc2cnn(Cc3ccc(C(=O)N4CC5(CNC5)C4)c4cccnc34)c12 [Compound 124, (3S)-3-({5-amino-1-[(5-{2,6-diazaspiro[3.3]heptane-2-carbonyl}quinolin-8-yl)methyl]-1H-pyrazolo[4,3-d]pyrimidin-7-yl}amino)hexan-1-ol] | 440 nM | 248 nM |
| CCC[C@@H](CCO)Nc1nc(N)nc2cnn(Cc3ccc(C(=O)N4C[C@H]5C[C@@H]4CN5C)c4cccnc34)c12 [Compound 126, (3S)-3-{[5-amino-1-({5-[(1R,4R)-5-methyl-2,5-diazabicyclo[2.2.1]heptane-2-carbonyl]quinolin-8-yl}methyl)-1H-pyrazolo[4,3-d]pyrimidin-7-yl]amino}hexan-1-ol] | 191 nM | 49.7 nM |

— patent US12485123B2, “1H-pyrazolo[4,3-d]pyrimidine compounds as toll-like receptor 7 (TLR7) agonists” (BRISTOL-MYERS SQUIBB COMPANY, priority 2020, dated 2025)
